Experimental data reported in patent US12194039B2, “Methods of treating heart failure by administering omecamtiv mecarbil” (Cytokinetics, Inc., priority 2020, dated 2025).
“And” between values parts separate entries of the source, which are not always exact repeats. Identical values can stand only once. “Also recorded” adds a separate entry of the source. Like-named read-outs stand apart in the source and are kept apart here.

Columns and labels:
[1] = molecular target: T1, BCRP (Homo sapiens, UniProt Q9UNQ0); assay: In vitro inhibition by OM; assay type: in vitro ADME; settings: result in words
T1 sequence (Q9UNQ0 1-655): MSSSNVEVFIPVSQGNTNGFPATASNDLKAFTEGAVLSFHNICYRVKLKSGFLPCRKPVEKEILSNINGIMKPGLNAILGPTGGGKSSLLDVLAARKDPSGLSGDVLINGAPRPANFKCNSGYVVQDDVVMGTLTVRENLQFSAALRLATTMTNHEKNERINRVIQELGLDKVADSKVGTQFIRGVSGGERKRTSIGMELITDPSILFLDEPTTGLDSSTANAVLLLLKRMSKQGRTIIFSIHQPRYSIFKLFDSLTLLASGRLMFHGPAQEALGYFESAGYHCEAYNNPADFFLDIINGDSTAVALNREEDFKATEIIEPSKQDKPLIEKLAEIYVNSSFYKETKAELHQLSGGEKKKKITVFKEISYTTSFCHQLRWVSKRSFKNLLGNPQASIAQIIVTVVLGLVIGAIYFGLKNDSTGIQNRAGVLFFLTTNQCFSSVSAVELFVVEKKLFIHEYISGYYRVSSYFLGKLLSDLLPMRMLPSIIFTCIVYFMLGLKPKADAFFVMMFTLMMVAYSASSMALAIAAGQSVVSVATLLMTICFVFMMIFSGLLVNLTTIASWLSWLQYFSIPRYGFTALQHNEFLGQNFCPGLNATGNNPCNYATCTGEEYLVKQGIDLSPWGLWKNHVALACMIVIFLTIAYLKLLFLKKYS

[2] = system: CYP3A4; assay: Clinical studies and physiologically based pharmacokinetic modeling of OM as perpetrator; assay type: in vivo, human; settings: clinical studies and PBPK modeling; result in words
Excerpt: OM may be administered with drugs that are substrates of CYP3A4, CYP2C8, P-gp or BCRP.

[3] = Single 35 mg dose of radiolabeled OM: blood to plasma ratio and excretion; assay type: in vivo, human; settings: oral radiolabeled OM, healthy subjects
Excerpt: The volume of distribution at steady state was approximately 4.8-6.6 L/kg.
Clearance of OM after oral administration was primarily through metabolism in the liver. […] Following oral administration of radiolabeled OM to healthy subjects, approximately 49% of the dose was excreted in urine (primarily as metabolites with 8% of parent compound recovered) and 38% in feces (primarily as unchanged drug).

[4] = system: patients with HFrEF by baseline NT-proBNP (no AF/F and all randomized); settings: for 1° Outcome (time to HF hospitalization or CV death), HR / All-cause death, HR / Hospitalization for HF, HR / NT-proBNP change from baseline to 24 weeks, Ratio: OM vs placebo
Description: Here we report the effect of omecamtiv mecarbil according to baseline NT-proBNP level in patients without AF/F and in the overall population. In addition, we describe the effect of omecamtiv mecarbil using NT-proBNP as a continuous as well as a categorical measure and describe the effect of omecamtiv mecarbil on NT-proBNP level.
NT-proBNP was measured at baseline and at 2, 6, 24, 48 and 96 weeks after randomization. Plasma NT-proBNP was measured in a central laboratory (Q Squared Solutions) using the Roche Elecsys NT-proBNP two-site electrochemiluminescence immunoassay (analytical range 50-35000 pg/m L).
Baseline characteristics were summarized as frequencies with percentages, means with standard deviation (SD), or medians with interquartile ranges. Differences in baseline characteristics were tested using the Cochrane-Armitage trend test for categorical variables and the analysis of variance test for continuous variables. The difference between treatment groups in NT-proBNP at the time points after randomization in surviving patients was analyzed using an analysis of covariance model, with treatment-group assignment as a fixed-effect factor and baseline NT-proBNP as a covariate. […] Time-to-event data were evaluated with Kaplan-Meier estimates and Cox proportional-hazards models with baseline hazards stratified by randomization setting and region and with treatment group and baseline eGFR as covariates. The safety analyses were performed in patients who underwent randomization and received at least one dose of omecamtiv mecarbil or placebo. […] A P-value of 0.05 was considered statistically significant.

[5] = system: patients with HFrEF by baseline SBP; assay type: in vivo
Excerpt: Systolic blood pressure (SBP) is a major predictor of outcomes in patients with heart failure and reduced ejection fraction (HFrEF). […] This trial provided data on the efficacy and tolerability of omecamtiv mecarbil according to baseline SBP values. In contrast to other HFrEF therapies, which may not be tolerated in patients with low baseline blood pressure (e.g., <100 mmHg), the present study was able to enroll patients with SBP at baseline of 85 mmHg or greater.
The 8232 randomized patients were subdivided according to SBP at baseline: <100 mmHg (n=1473), 101-110 mmHg (n=1734), 111-120 mmHg (n=1824), 121-130 mmHg (n=1627), and >130 mmHg (n=1574). Significant differences between these subgroups were found with respect of multiple baseline characteristics. The primary composite endpoint occurred in 715 (48.5%), 682 (39.3%), 679 (37.2%), 556 (34.2%), and 498 (31.6%) patients in each SBP subgroup, respectively. Hazard ratios (HRs) and 95% confidence intervals (CIs) for the treatment effect on the primary outcome were of 0.81, 0.70-0.94; 0.88, 0.76-1.03; 1.03, 0.88-1.19; 0.87, 0.73-1.03; and 1.07, 0.90-1.28 in each SBP subgroup, respectively.

[6] = All patients, baseline NT-proBNP >median
[7] = All patients, baseline NT-proBNP >median, OM n = 2034
[8] = All patients, baseline NT-proBNP ≤median
[9] = All patients, baseline NT-proBNP ≤median, OM n = 2073
[10] = No AF/F, baseline NT-proBNP >median
[11] = No AF/F, baseline NT-proBNP >median, OM n = 1489
[12] = No AF/F, baseline NT-proBNP ≤median
[13] = No AF/F, baseline NT-proBNP ≤median, OM n = 1476
[14] = patients without AF/F, baseline NT-proBNP>median

COC(=O)N1CCN(Cc2cccc(NC(=O)Nc3ccc(C)nc3)c2F)CC1 [omecamtiv mecarbil]
Inhibition of BCRP [1]: inhibitor
Induction of CYP3A4 [2]: weak inducer
Parent compound recovered in urine [3]: 8%
Dose excreted in urine ([3]; primarily as metabolites): approximately 49%
Dose excreted in feces ([3]; primarily as unchanged drug): ~38%
NT-proBNP at 24 wks [4, 6]: 2809 pg/mL
1° Outcome (time to HF hospitalization or CV death), % [4, 7]: (48) %
1° Outcome (time to HF hospitalization or CV death), Rate [4, 7]: 36.52 per 100 person-years
All-cause Death (%) [4, 7]: (36) %
All-cause Death Rate [4, 7]: 21.87 per 100 person-years
Hospitalization for HF, % [4, 7]: (37) %
Hospitalization for HF, Rate [4, 7]: 27.93 per 100 person-years
1° Outcome (time to HF hospitalization or CV death), HR [4, 6]: 0.88
All-cause death, HR [4, 6]: 0.97
Hospitalization for HF, HR [4, 6]: 0.88
NT-proBNP change from baseline to 24 weeks, Ratio [4, 6]: 0.84
NT-proBNP at 24 wks [4, 8]: 772 pg/mL
1° Outcome (time to HF hospitalization or CV death), % [4, 9]: (26) %
1° Outcome (time to HF hospitalization or CV death), Rate [4, 9]: 15.00 per 100 person-years
All-cause Death (%) [4, 9]: (16) %
All-cause Death Rate [4, 9]: 8.11 per 100 person-years
Hospitalization for HF, % [4, 9]: (20) %
Hospitalization for HF, Rate [4, 9]: 11.84 per 100 person-years
1° Outcome (time to HF hospitalization or CV death), HR [4, 8]: 1.02
All-cause death, HR [4, 8]: 1.10
Hospitalization for HF, HR [4, 8]: 1.04
NT-proBNP change from baseline to 24 weeks, Ratio [4, 8]: 0.95
NT-proBNP threshold at which the favorable effect emerged ([4]; NT-proBNP as a continuous measure, patients without AF/F): around 2,000 pg/mL
NT-proBNP at 24 wks [4, 10]: 2302 pg/mL
1° Outcome (time to HF hospitalization or CV death), % [4, 11]: (44) %
1° Outcome (time to HF hospitalization or CV death), Rate [4, 11]: 31.30 per 100 person-years
All-cause Death (%) [4, 11]: (32) %
All-cause Death Rate [4, 11]: 18.67 per 100 person-years
Hospitalization for HF, % [4, 11]: (32) %
Hospitalization for HF, Rate [4, 11]: 23.26 per 100 person-years
1° Outcome (time to HF hospitalization or CV death), HR [4, 10]: 0.81
All-cause death, HR [4, 10]: 0.86
Hospitalization for HF, HR [4, 10]: 0.79
NT-proBNP change from baseline to 24 weeks, Ratio [4, 10]: 0.83
NT-proBNP at 24 wks [4, 12]: 614 pg/mL
1° Outcome (time to HF hospitalization or CV death), % [4, 13]: (22) %
1° Outcome (time to HF hospitalization or CV death), Rate [4, 13]: 12.42 per 100 person-years
All-cause Death (%) [4, 13]: (13) %
All-cause Death Rate [4, 13]: 6.74 per 100 person-years
Hospitalization for HF, % [4, 13]: (17) %
Hospitalization for HF, Rate [4, 13]: 9.62 per 100 person-years
1° Outcome (time to HF hospitalization or CV death), HR [4, 12]: 0.94
All-cause death, HR [4, 12]: 0.96
Hospitalization for HF, HR [4, 12]: 0.97
NT-proBNP change from baseline to 24 weeks, Ratio [4, 12]: 0.95
Effect on NT-proBNP by baseline NT-proBNP ([4]; baseline to 24 weeks, result in words): reduced NT-proBNP only in patients with a baseline value NT-proBNP greater than the median
Adverse events compared to placebo ([4]; in vivo): no strong or consistent evidence that any adverse event was more common
Effect on systolic blood pressure ([4]; in vivo): did not have a significant effect
Effect on troponin I ([4]; in vivo): increased troponin I, significantly
HR (heart rate) at 24 wks ([4]; in vivo): 70 (11) bpm and 69 bpm and 70 (12) bpm and 70 bpm
Major cardiac ischemic events, RR ([4]; in vivo): 1.16 (0.86, 1.56) and 1.10 (0.85, 1.43) and 1.08 (0.80, 1.47) and 0.99 (0.74, 1.33)
Major cardiac ischemic events, number of patients ([4]; in vivo): 86 (5.8) and 114 (5.5) and 83 (5.6) and 85 (4.2)
Major cardiac ischemic events, value in parentheses ([4]; in vivo): 86 (5.8) and 114 (5.5) and 83 (5.6) and 85 (4.2)
Reduction of heart rate ([4]; in vivo): 1-2 beats per minute
SBP at 24 wks ([4]; in vivo): 120 mmHg and 116 mmHg
Stroke, RR ([4]; in vivo): 0.83 (0.49, 1.39) and 0.68 (0.44, 1.03) and 0.73 (0.45, 1.17) and 0.69 (0.46, 1.03)
Stroke, number of patients ([4]; in vivo): 25 (1.7) and 36 (1.7) and 29 (2.0) and 40 (2.0)
Stroke, value in parentheses ([4]; in vivo): 25 (1.7) and 36 (1.7) and 29 (2.0) and 40 (2.0)
Torsade/QT prolongation, RR ([4]; in vivo): 0.84 (0.58, 1.23) and 0.88 (0.65, 1.19) and 1.01 (0.73, 1.39) and 0.94 (0.72, 1.23)
Troponin I change from baseline to 24 weeks, Ratio ([4]; in vivo): 1.28 and 1.25 and 1.23
Ventricular tachyarrhythmia leading to treatment, RR ([4]; in vivo): 0.67 (0.42, 1.07) and 0.86 (0.59, 1.25) and 1.15 (0.77, 1.72) and 1.02 (0.73, 1.42)
Ventricular tachyarrhythmia, RR ([4]; in vivo): 0.82 (0.62, 1.09) and 0.89 (0.71, 1.12) and 1.05 (0.82, 1.35) and 1.03 (0.83, 1.27)
Ventricular tachyarrhythmia, number of patients ([4]; in vivo): 84 (6.7) and 130 (7.3) and 115 (8.6) and 160 (8.7)
Ventricular tachyarrhythmia, value in parentheses ([4]; in vivo): 84 (6.7) and 130 (7.3) and 115 (8.6) and 160 (8.7)
Primary endpoint, hazard ratio ([4]; overall population, NT-proBNP less than or equal to the median): 1.01
Primary endpoint, hazard ratio ([4]; overall population, NT-proBNP>median): 0.88
Primary outcome event rate compared with the placebo group ([4]; patients with AF/F at baseline, result in words): higher event rate
Proportional reduction in NT-proBNP compared with placebo ([4]; patients with NT-proBNP greater than the median at baseline): approximately 17%
Primary endpoint, hazard ratio ([4]; patients without AF/F, NT-proBNP greater than the median): 0.81
Primary endpoint, hazard ratio ([4]; patients without AF/F, NT-proBNP less than or equal to the median): 0.94
Benefit on primary endpoint ([4]; patients without AF/F, NT-proBNP≤median, result in words): no benefit
Relative risk reduction in cardiovascular mortality [4, 14]: 13%
Relative risk reduction in heart failure hospitalization [4, 14]: 21%
Relative risk reduction in the primary endpoint [4, 14]: 18%
Treatment efficacy / benefit by baseline NT-proBNP level ([4]; result in words): higher treatment efficacy; also recorded: larger in patients with higher baseline NT-proBNP levels
Primary outcome, hazard ratio for the treatment effect ([5]; baseline SBP 101-110 mmHg (n=1734)): 0.88
Primary outcome, hazard ratio for the treatment effect ([5]; baseline SBP 111-120 mmHg (n=1824)): 1.03
Primary outcome, hazard ratio for the treatment effect ([5]; baseline SBP 121-130 mmHg (n=1627)): 0.87
Primary outcome, hazard ratio for the treatment effect ([5]; baseline SBP <100 mmHg (n=1473)): 0.81
Primary outcome, hazard ratio for the treatment effect ([5]; baseline SBP >130 mmHg (n=1574)): 1.07
